Source: US20140221390A1, “PROPHYLACTIC AND/OR THERAPEUTIC AGENT FOR NON-ALCOHOLIC STEATOHEPATITIS” (Kowa Company, Ltd., priority 2010, published 2014)
Structures can show the parent of a compound that is named as a salt.

How the values were obtained:
Type in all cases: in vivo
[1] = test system: LDL receptor-knockout mice; assay: Effect in LDL receptor-knockout mouse NASH model (Western diet); conditions: 12 weeks
Source text: An effect in LDL receptor-knockout mice fed with the Western diet which were known to develop fatty liver and hepatic inflammation, i.e., characteristic conditions of NASH (Yoshimatsu M. et al. Int J Exp Pathol., 85(6), 335-43 (2004)) was examined. In the present test, monohydrochloride of 2-[4-[2-(benzimidazol-2-ylthio)ethyl]piperazin-1-yl]-N-[2,4-bis(methylthio)-6-methyl-3-pyridyl]acetamide (hereinafter referred to as “compound A”) was used.
Male LDL receptor-knockout mice (B6.129S7-Ldlr<tm1Her>/J, Jackson Laboratories) were used for the experiment. The mice aged around 8 weeks were allowed to freely intake Teklad Custom Research Diet (TD.88137, manufactured by Harlan Teklad) as a Western diet for 12 weeks to cause them to develop NASH.
The mice were separated into a control group (hydrochloride added purified water) and a compound A (3 mg/kg, as free form) administered group so that there is no difference in the weights between the groups.
The dose was calculated by 10 mL/kg weight. Hydrochloride added purified water and each drug solution were orally administered to the control group and the compound A administered group, respectively, at an interval of at least 6 hours, once in the morning and once in the afternoon. The mice aged around 8 weeks were fed with the Western diet, and the drug solution was administered at the same time. The dosing period was 12 weeks.
After the end of administration, the mice were fasted overnight. The blood was collected from the abdominal portion of vena cava under anesthesia with pentobarbital sodium (50 mg/kg) and the plasma was fractionated. After collecting the blood, the liver was extracted and frozen for preservation. A part of the liver was frozen in ISOGEN (NIPPON GENE, CO., LTD.) and preserved to analyze the gene expression.
Total cholesterol (TC) and triglyceride (TG) in the plasma were measured using Cholesterol E Test Wako and Triglyceride E Test Wako (both manufactured by Wako Pure Chemical Industries, Ltd.), respectively. Measurement of liver lipid was performed in the following manner. Chloroform and methanol (at a ratio of 2:1) were added to the frozen and preserved liver, which was homogenized, and the resultant mixture was allowed to stand at 4° C. longer than overnight, followed by filtration. A part of the filtrate was fractionated, followed by evaporation and drying. The resultant product was dissolved in isopropanol. TC and TG concentrations were measured using Cholesterol E-Test Wako and Triglyceride E-Test Wako, respectively.
Liver gene expression analysis was performed by extracting RNA from the liver and measuring expression levels of TNF-α genes and CD11c genes in adhesion molecules belonging to an integrin family of macrophages by realtime RT-PCR. The liver was homogenized in ISOGEN to extract RNA according to the instruction manual. The concentration of RNA was measured using a spectrophotometer (ND-1000, NanoDrop Technologies, Inc.). Reverse transcription of mRNA from total RNA was performed using High Capacity cDNA Reverse Transcription Kit (Applied Biosystems) to synthesize cDNA. Gene expression analysis was performed by an intercalator method using SYBR green I or a method using Taqman Probe. Realtime RT-PCR was performed using 7900HT Fast Real-Time PCR System (Applied Biosystems). β-actin was used as an internal standard. After correction with β-actin, the expression levels of respective genes were compared with one another. The sequences of the used primers and probes are as follows: […]
The statistical work was performed using the Windows (registered trademark) version of the SAS Preclinical Package (SAS Institute Japan Inc.).

[2] = test system: C57BL/6N-NASH mice; assay: Effect in murine NASH-hepatoma models (C57BL/6N-NASH mice); conditions: 100 mg/kg mixed in feed, 5 weeks
Source text: Murine NASH-hepatoma models (brand name: C57BL/6 N-NASH mice) developed in Stelic Institute & Co. (See Japanese Patent Application Laid-Open (JP-A) No. 2009-178143) are provided by Charles River Laboratories Japan, Inc. The murine models develop NASH by initiation of insulin resistance and feeding with a high fat diet. The murine models show changes which histologically reflect the conditions of human NASH. The fatty liver (before 6 weeks old) progresses to NASH (7 weeks old), liver cirrhosis (after 10 weeks old), and liver cancer (after 16 weeks old). Accordingly, it is said that the models are useful in research and development of therapeutic drugs for NASH (See Data of SIAM Mice C57BL/6N-NASH Model Mice (http://www.crj.co.jp/topics/pdf/69/6375030/B6N_NASH_leaflet—091019.pdf)).
Then, the effect of the compound A was examined using murine NASH-hepatoma models with a more serious condition than the knockout mice used in Example 1.
Male C57BL/6N-NASH mice (Charles River Laboratories Japan, Inc.) were used for the experiment. Streptozotocin was administered to the mice aged 1 to 2 days and they were fed with a high fat diet (D12492, Research Diet) from 4 weeks old. The mice were purchased at 6 weeks old and continuously fed with the same high fat diet (hereinafter, the mice are referred to as “C57BL/6N-NASH mice”). As a normal control group, normal mice (C57BL/6N, 6 weeks old, Charles River Laboratories Japan, Inc.) were purchased at the same time and they were fed with an ordinary diet (CE-2, CLEA Japan, Inc.) (hereinafter referred to as “normal mice”).
C57BL/6N-NASH mice were used for a control group and a compound A (100 mg/kg) administered group. The number of mice in each group was six. As normal mice (control group), 6 normal mice (C57BL/6N mice) were used.
The compound A and feeds were mixed to feed the mice. C57BL/6N-NASH mice with NASH aged 7 weeks were fed with the feed mixture. The dosing period was 5 weeks.
After the end of administration, the mice were fasted for 4 hours. The blood was collected from the abdominal portion of vena cava under anesthesia, and the plasma was fractionated. After collecting the blood, the liver was extracted. A part of the liver was frozen for preservation, and the other part was embedded in paraffin in a usual manner. Plasma lipid and plasma ALT levels were measured using an autoanalyzer (Labospect003, Hitachi, Ltd.). Measurement of liver lipid was performed in the following manner. That is, chloroform and methanol (at a ratio of 2:1) were added to a part of the frozen and preserved liver, which was homogenized, and the resultant mixture was allowed to stand at 4° C. overnight, followed by filtration. A part of the filtrate was fractionated, followed by evaporation and drying. The resultant product was dissolved in isopropanol. The concentrations of total cholesterol (TC) and triglyceride (TG) were measured using Cholesterol E-Test Wako and Triglyceride E-Test Wako, respectively. Further, paraffin sections and HE-stained specimens were produced to observe liver tissues.

[3] = test system: KK-A^y mice; assay: Effect in KK-Ay mice fed with MCD diet (NASH model); conditions: 7 weeks
Source text: Rodent models fed with methionine-choline deficient diet (MCD diet) are widely used as NASH models (See Hebbard L, George J.: Animal models of nonalcoholic fatty liver disease Nat Rev Gastroenterol Hepatol. 2011 January; 8 (1):35-44. Epub 2010 Nov. 30.). Among them, models of KK-A^y mice are known to cause marked steatohepatitis and fibrosis (See Okumura K., Ikejima K., Kon K., Abe W., Yamashina S., Enomoto N., Takei Y. and Sato N. (2006) Exacerbation of dietary steatohepatitis and fibrosis in obese, diabetic KK-A^y mice Hepatology Research 2006 36:3 (217-228)). It is considered that the mice are excellent models to examine the drug effect on NASH.
Male KK-A^y mice (KK-A^y/TaJcl mice, 12 weeks old, were purchased from CLEA Japan, Inc.) were used for the experiment. The mice were fed with the MCD diet for 7 weeks to cause NASH.
The mice were separated into a control group, a compound A (30 mg/kg) administered group, and a compound A (200 mg/kg) administered group. The drug and feeds were mixed to feed the mice. The dosing period was 7 weeks.
The compound A and feeds were mixed to feed the mice. The mice was fed with the MCD diet, and fed with the feed mixture at the same time.
The methods were performed, in the same manner as in the case of the murine NASH-hepatoma models described in Example 2. In addition to the HE-stained specimens for observing liver tissues, Azan-stained specimens were also prepared.

SMILES: CSc1cc(C)nc(SC)c1NC(=O)CN1CCN(CCSc2nc3ccccc3[nH]2)CC1 [compound A, monohydrochloride of 2-[4-[2-(benzimidazol-2-ylthio)ethyl]piperazin-1-yl]-N-[2,4-bis(methylthio)-6-methyl-3-pyridyl]acetamide]
- total cholesterol (TC) in the plasma ([1]; 3 mg/kg as free form, oral, twice daily, Western diet, FIG. 1A): no significant effect
- triglyceride (TG) in the plasma ([1]; 3 mg/kg as free form, oral, twice daily, Western diet, FIG. 1B): no significant effect
- total cholesterol (TC) in the liver ([1]; 3 mg/kg as free form, oral, twice daily, Western diet, FIG. 2A): significant decrease
- triglyceride (TG) in the liver ([1]; 3 mg/kg as free form, oral, twice daily, Western diet, FIG. 2B): significant decrease
- macrophage CD11c gene expression in the liver ([1]; 3 mg/kg, realtime RT-PCR, corrected with β-actin, FIG. 3A): significant decreases
- inflammatory cytokine TNF-α expression in the liver ([1]; 3 mg/kg, realtime RT-PCR, corrected with β-actin, FIG. 3B): significant decreases
- plasma lipid ([2]; from 7 weeks old): no effect
- plasma ALT level ([2]; vs NASH control group, FIG. 4): reduced
- hepatic TC level ([2]; vs NASH control group, FIG. 5): reduced
- hepatic TG level ([2]; vs NASH control group, FIG. 6): reduced
- development of lipid-droplet deposition in liver (HE-stained) ([2]; FIG. 7): inhibited
- plasma ALT level ([3]; 200 mg/kg mixed in feed, FIG. 8): significantly reduced
- plasma lipid ([3]; 30 or 200 mg/kg mixed in feed): no effect
- hepatic TC level ([3]; mixed in feed, FIG. 9): significantly reduced
- hepatic TG level ([3]; mixed in feed, FIG. 10): significantly reduced
- development of lipid-droplet deposition in the liver (HE-stained) ([3]; mixed in feed, FIG. 11): inhibited
- development of fibrosis in the liver (Azan-stained) ([3]; mixed in feed, FIG. 12): inhibited
